In patent US20250099488A1, “ANTI-PARASITE COMPOUNDS” (AUSTRALIAN NATIONAL UNIVERSITY, priority 2022, published 2025):
Read-outs that look alike come from different tables or passages of the source.

Tests used:
[1] = system: asexual P. falciparum; experiment: Plasmodium growth inhibition assay (SYBR Safe), asexual stages; assay type: cell-based, Plasmodium falciparum; settings: for Inhibitory effect on proliferation of asexual stages: FIG. 11D, cholesterol in ethanol, DMSO or ethyl acetate, DHEA
Protocol: Compounds or solvent controls (DMSO, ethanol, or ethyl acetate) were serially diluted 2-fold across flat-bottom 96-well plates. Complete culture media without compound was used as a negative control. Chloroquine (100-200 nM) {Sigma C6628} was used as a positive control to determine background fluorescence. The parasitaemia of a culture containing predominantly ring stage parasites was counted by Giemsa smear. The parasitaemia was adjusted to 1% by addition of fresh uRBCs, and added to the plate at a final haematocrit of 1%, with 200 μL per well. The plates were incubated at 37° C. under humid microaerophilic conditions. […] Fluorescence was read at 490 nm excitation/520 nm emission on a FLUOstar Optima fluorescence plate reader {BMG Labtech}.
Growth inhibition data were normalised by subtracting background fluorescence from a no-growth control (high drug concentration or time=0 measurement as specified), and expressed as a percentage of the growth in the negative control (media alone or solvent control) either at the indicated timepoint, or to the highest measurement reached during the assay.
P. falciparum asexual parasite assays begun with ring-stage parasites at 1% parasitaemia and 1% haematocrit. 200 nM chloroquine (Sigma C6628) was used as a no-growth control. […] 17]; 8 (2):e54974).
(§1) Growth inhibition data were normalised by subtracting background fluorescence, luminescence, absorbance, or percentage of cells from a no-growth or no-viability control (high drug concentration, no-parasite control, or time=0 measurement as specified), and expressed as a percentage of the growth or cell percentage in the negative control (culture media alone or solvent control) at the indicated timepoint (or to the highest measurement reached during the assay for FIG. 15B).

[2] = system: P. falciparum CAM3.IIREV (susceptible); experiment: Ring stage survival assay, susceptible revertant strain; assay type: cell-based, Plasmodium falciparum; settings: 700 nM for six hours, then 66 hours without drug
Source text: (§2) The inventors tested these compounds in a ring stage survival assay, which allows the detection of resistant parasites against this […] drug and is the standard method for investigating resistance to artemisinin and its derivatives (Witkowski B, Menard D, Amaratunga C. Fairhurst R. Ring-stage Survival Assays (RSA) to evaluate the in-vitro and ex-vivo susceptibility of Plasmodium falciparum to artemisinins Procedure. Inst Pasteur du Cambodge—Natl Institutes Heal [Internet]. 2013 Sep. 11 [cited 2022 Jun. 19]; Procedure; available from: https://www.wwarn.org/sites/default/files/INV10-Standard-Operating-Procedure-Ring-Stage-Survival-Assays.pdf). This assay involves a short treatment window against newly-invaded ring stage parasites, followed by removal of drug pressure to mimic the clearance of the drug from plasma. We utilised two parasite strains: an isolate from Cambodia (CAM3.II) with a mutated Kelch-13 conferring resistance, and a genetically modified revertant of this strain (CAM3.IIREV) conferring drug susceptibility (Straimer J, Gnädig N F, Witkowski B, Amaratunga C, Duru V, Ramadani A P, et al. K13-propeller mutations confer artemisinin resistance in Plasmodium falciparum clinical isolates. Science (80-) [Internet]. 2015 Jan. 23 [cited 2022 Jun. 19]; 347(6220):428-31; available from: https://www.science.org/doi/10.1126/science.1260867).
(§3) Following tight synchronisation, CAM3.II and CAM3.IIREV ring stage parasites (0-3 hours post invasion) at 1% parasitaemia and 2% haematocrit were incubated with 700 nM of compounds or solvent-only controls for exactly six hours, before removing the drug, thoroughly washing in RPMI, and returning to culture conditions for a further 66 hours. Some cells were treated with 700 nM artesunate for 72 hours as a no-growth control. DNA replication (indicating growth) was measured at the specified time using SYBR Safe DNA Gel Stain. Microscope slide smears of each condition were stained with 10% v/v Giemsa and examined under a light microscope (1 000× magnification); with ‘viable’ (morphologically normal) and ‘non-viable’ (morphologically aberrant; vacuolated or pyknotic) parasites distinguished according to standard protocol (Witkowski B, Menard D, Amaratunga C, Fairhurst R. Ring-stage Survival Assays (RSA) to evaluate the in-vitro and ex-vivo susceptibility of Plasmodium falciparum to artemisinins Procedure. Inst Pasteur du Cambodge—Natl Institutes Heal [Internet]. 2013 Sep. 11 [cited 2022 Jun. 19]; Procedure. Available from: https://www.wwam.org/sites/default/files/INV10-Standard-Operating-Procedure-Ring-Stage-Survival-Assays.pdf). Images were captured using a Leica ICC50 camera, with a resolution of 76 nm per pixel.

[3] = system: P. falciparum CAM3.II (mutated Kelch-13, resistant); experiment: Ring stage survival assay, resistant strain; assay type: cell-based, Plasmodium falciparum; settings: 700 nM for six hours, then 66 hours without drug; for Parasite survival (DNA replication): FIG. 17B
Source text: as §2, §3

[4] = system: human foreskin fibroblasts (HFF); experiment: HFF growth inhibition assay (SYBR Safe); assay type: cell-based; settings: 72 hours, FIG. 16G
Protocol: Cells were incubated with a serial dilution of each compound, or media/DMSO alone. The protein synthesis inhibitor cycloheximide (10 μg/mL) was used as a positive control to determine background fluorescence. Approximately 5000 cells were seeded in each well. […] Plates were transferred to a −18° C. freezer. […] Fluorescence was read at 490 nm excitation/520 nm emission on a FLUOstar Optima fluorescence plate reader.
HFF cell growth inhibition assays began with 5000 cells per well. 10 μg/mL cycloheximide was used as a no-growth control.

[5] = system: human hepatoma cells (Huh7); experiment: Huh7 hepatoma viability assay (CellTiter-Blue); assay type: cell-based; settings: 48 hours; effect on cellular integrity / modest cytotoxicity
Protocol: Huh7 hepatoma viability assays were conducted in the same manner as the P. berghei assays, with metabolic capacity (indicating viability) measured by incubation with CellTiter-Blue® (Promega) for 3 hours.

[6] = system: P. falciparum gametocytes (stage III-IV); experiment: Gametocyte viability assay (MitoTracker, flow cytometry); assay type: cell-based, Plasmodium falciparum; settings: Plasmodium falciparum, read-out: IC50, gametocyte viability
Source text: Gametocyte assays begun eight days post-invasion (Stage III-IV).
as §1

[7] = HEK293 cell viability assay (MTT); assay type: cell-based, human; settings: human, 96 hours, FIG. 16H / FIG. 18C, read-out: IC50, HEK293 cytotoxicity
Protocol: HEK293 cell viability assays began with 5000 cells per well. 10 μg/mL cycloheximide was used as a no-growth control. Metabolic capacity (indicating viability) was measured by incubation with 0.45 mg/mL methylthiazolyldiphenyl-tetrazolium bromide (MTT; Sigma M2128) for two hours followed by crystal solubilisation in SDS.

[8] = system: P. berghei liver stages; experiment: P. berghei liver stage growth assay (luciferase) in Huh7 cells; assay type: cell-based, Plasmodium berghei; settings: Plasmodium berghei, Huh-7; 48 hours of treatment from sporozoite inoculation, Huh7 cells, FIG. 16A
Protocol: (§4) Huh7 cells were seeded at a density of 10 000 cells per well, or 20 000 per collagen-coated coverslip. […] Uninfected wells served as a control for background luminescence. […] Data are presented as a percentage of the size or parasite number of the solvent control to normalize for differences between experiments. For cell images presented in the figure, images were collected under optimal exposure settings to ensure features were visible. Individual cells were cropped from larger images with Fiji ImageJ, and the brightness was adjusted while ensuring that no fluorescence was removed. No other manipulations were performed.
as §1

[9] = system: Toxoplasma gondii tachyzoites; experiment: Toxoplasma growth inhibition assay (tdTomato fluorescence); assay type: cell-based; settings: Toxoplasma gondii, 72 h, read-out: IC5 against T. gondii
Protocol: Fluorescent Toxoplasma gondii parasites were inoculated into an optical bottom 96-well plate containing confluent human foreskin fibroblast (HFF) host cells at a density of 2000 parasites/well, with a serial dilution of each compound, or media/DMSO alone. Plates were measured daily with a FluoStar Optima fluorescence plate reader at 540 nm excitation/590 nm emission for seven days, and the background fluorescence from the time 0 reading was subtracted from all other measurements.
Fluorescence was measured daily with a FluoStar Optima fluorescence plate reader for one week, and the background fluorescence from the time 0 reading was subtracted from all other measurements.
as §1

[10] = system: P. berghei liver stage schizonts; experiment: P. berghei liver stage parasite size and number (fluorescence microscopy) in Huh7 cells; assay type: cell-based, Plasmodium berghei; settings: 3 μM, 48 hours post-infection, vs DMSO
Protocol: as §4

[11] = Plasmodium falciparum, 72 hours, FIG. 18B, read-out: IC50
[12] = Plasmodium falciparum, 24 hours, starting with ring-stage parasites, FIG. 14B, read-out: IC50

C[C@]12CC[C@H](O)CC1=CC[C@@H]1[C@@H]2CC[C@]2(C)C(=O)CC[C@@H]12 [DHEA, 3β-Hydroxyandrost-5-en-17-one, reference compound]
Inhibitory effect on proliferation of asexual stages [1]: influences proliferation, although at relatively high concentrations | IC50 [1, 11]: 150 µM

C[C@H]1[C@H](OC(=O)CCC(=O)O[C@H]2CC[C@H]3[C@@H]4CC=C5C[C@@H](O)CC[C@]5(C)[C@H]4CC[C@]23C)O[C@@H]2O[C@]3(C)CC[C@H]4[C@H](C)CC[C@@H]1[C@@]24OO3 [C-17-art, 3β-Hydroxyandrost-5-en-17β-yl succinate-artesunate ester]
Morphology in Giemsa-stained smears [2]: only morphologically aberrant parasites were present | Morphology in Giemsa-stained smears [3]: only aberrant, non-viable parasites were visible | Parasite survival (DNA replication) [3]: kills all cells

COc1cc(NC(C)CCCNC(=O)CCC(=O)O[C@H]2CC[C@@]3(C)C(=CC[C@H]4[C@@H]5CC[C@H]([C@H](C)CCCC(C)C)[C@@]5(C)CC[C@@H]43)C2)c2ncccc2c1 (stereo partly drawn) [C-3-prim, Cholester-3-yl succinate-primaquine amide]
No inhibition of parasite growth up to (concentration) ([1]; 24 hours): > 100 µM | IC50 [1, 12]: > 200 µM

CC(C)CCC[C@@H](C)[C@H]1CC[C@H]2[C@@H]3CC=C4C[C@@H](O)CC[C@]4(C)[C@H]3CC[C@]12C [cholesterol, Cholesterol, reference compound]
Inhibitory effect on proliferation of asexual stages [1]: No inhibitory effect could be detected in the concentration range being used | IC50 [1, 11]: > 400 µM

CC(C)CCC[C@@H](C)[C@H]1CC[C@H]2[C@@H]3CC=C4C[C@@H](OC(=O)CCC(=O)OC(C)C)CC[C@]4(C)[C@H]3CC[C@]12C [C-3-link, 3β-Succinate-(propan-2-yldiester)-cholest-5-ene]
No inhibition of parasite growth up to (concentration) ([1]; 24 hours): > 200 µM | IC50 [1, 12]: > 200 µM

CC1CCC2C(C)C(OC(=O)CCC(=O)OC3CCC4C5CC=C6CC(O)CCC6(C)C5CCC34C)OC3OC4(C)CCC1C32OO4 (stereo not drawn) [PAYb076a]
Effect of steroid-artesunate conjugates on proliferation ([1]; 72 hrs, FIG. 13B/13C): better activity than coupling via C3

CC(C)OC(=O)CCC(=O)O[C@@H]1O[C@@H]2O[C@]3(C)CC[C@H]4[C@H](C)CC[C@@H]([C@H]1C)[C@@]24OO3 [art-link, Propan-2-yl artesunate ester]
Morphology in Giemsa-stained smears [2]: only morphologically aberrant parasites were present | Morphology in Giemsa-stained smears [3]: a combination of morphologically normal parasites and morphologically aberrant pyknotic or vacuolated forms | Parasite survival (DNA replication) [3]: showed a trend to improved efficacy over artesunate

CC(C)OC(=O)CCC(=O)O[C@H]1CC[C@H]2[C@@H]3CC=C4C[C@@H](O)CC[C@]4(C)[C@H]3CC[C@]12C [C-17-link, 3β-Hydroxyandrost-5-en-17β-yl succinate-propan-2-yl diester]
IC50, fibroblast growth [4]: no notable inhibition was observed | Concentration at which cytotoxic effect was detected [5]: > 30 µM | Parasite survival / growth inhibition (DNA replication) ([2]; FIG. 17B): did not significantly impact on the growth of either strain | IC50 ([6]; 48 h): > 100 µM | Parasite survival (DNA replication) [3]: did not significantly impact on the growth of either strain | IC50 at 96 h [7]: 43.6 µM

Cc1ncc([N+](=O)[O-])n1CCO [Metronidazole, metronidazole, reference compound]
IC50 ([1]; Example 4, FIG. 20B): almost no effect in the range tested

COc1cc(NC(C)CCCN)c2ncccc2c1 (stereo not drawn) [primaquine, reference compound]
IC50 [8]: 2.9 µM | IC50 [9]: 9.7 µM | Hill slope of inhibitory curve ([1]; 24 hours): −1.65 | Hill slope of inhibitory curve ([1]; 72 hours): −1.48 | IC10 ([1]; FIG. 8B, Example 2): 12 µM | IC90 ([1]; Plasmodium falciparum, 24 h): 41 µM | IC50 ([1]; Plasmodium falciparum, 72 h): 3.2 µM | IC50 ([6]; 48 h): 63.5 µM | Smaller parasite size (reduction) [10]: 61% | IC50 at 96 h [7]: 10.6 µM

Cc1ncc([N+](=O)[O-])n1CCOC(=O)CCC(=O)O[C@H]1CC[C@H]2[C@@H]3CC=C4C[C@@H](O)CC[C@]4(C)[C@H]3CC[C@]12C [BC62D, 3β-Hydroxyandrost-5-en-17β-yl succinate-metronidazole diester]
IC50 ([1]; Plasmodium falciparum, Example 4, FIG. 20B, read-out: IC50): 24 µM

CC(C)(C)OOC(C)(C)C [di-ter-butyl peroxide, di-tert-butyl peroxide, reference compound]
IC50 ([1]; 72 hours, FIG. 18B, read-out: IC50): > 25 µM

COc1cc(NC(C)CCCNC(=O)CCC(=O)OC(C)C)c2ncccc2c1 (stereo not drawn) [prim-link, Propan-2-yl succinate-primaquine amide]
IC50 ([6]; 48 hours of incubation, stage III-IV, FIG. 14C): > 100 µM | IC50 at 96 h ([7]; HEK293 cells): 13.3 µM
